Assay [1] concerns SUDHL5. Nature of the assay: Induction of cytotoxicity (CellTiter-Glo, 5 h), SUDHL5. The following applies: Homo sapiens, SU-DHL-5, 5 h. A general note: ATP-based viability assays read luminescence as a measure of living cells.
The subject of assay [2] is SUDHL5. The experiment in a line: Induction of caspase-3/7 activity (Caspase-Glo 3/7), SUDHL5. The class given is cell-based. Conditions: Homo sapiens, SU-DHL-5, 3 h, caspase-3/7 induction, SUDHL5 cells, 3 h treatment; median. The method, then: (§1) Induction of Caspase-317 Activity Upon Treatment of Cells with Selected Compounds
(§2) The BH3-domain of MCL-1 sequesters pro-apoptotic proteins, thereby inhibiting apoptosis. In contrast, MCL-1 inhibitors are expected to antagonize this effect leading to an increase in apoptosis, which can be determined by measuring the activity of caspase-3/7.
(§3) The activity of caspase-3/7 was determined in DLBCL (Diffuse large B-cell lymphoma) cell lines (SUDHL5 and SUDHL10) upon treatment with different compounds, using the Caspase-Glo® 3/7 reagent from Promega (G8092).
(§4) Rim wells were excluded. The cells were incubated for 3 h hours in a humidified incubator at 37° C.
(§5) For the evaluation of the results, the background measured with “medium-only” was subtracted from all other values. […] The Bella DRC Master Sheet was used to calculate EC50s, with fixed C0=1 and CI=plateaulmax induction for the reference compound.

In assay [3] the test system is SUDHL10. Nature of the assay: Induction of cytotoxicity (CellTiter-Glo, 5 h), SUDHL10. Conditions: Homo sapiens, SU-DHL10, 5 h.
The next assay concerns the target MCL-1 (Homo sapiens, UniProt Q07820). Nature of the assay: Protein-protein interaction assay MCL-1/Noxa BH3 peptide (MCL-1 assay), TR-FRET. The class given is binding. The following applies: MBP-MCL-1 / Noxa BH3-derived peptide, median. The method, then:
Protein-Protein Interaction Assay: MCL-1/Noxa BH3 Peptide (MCL-1 Assay) […]
In the assay 11 different concentrations of each compound (0.1 nM, 0.33 nM, 1.1 nM, 3.8 nM, 13 nM, 44 nM, 0.15 μM, 0.51 μM, 1.7 μM, 5.9 μM and 20 μM) were typically measured as duplicates in the same microtiter plate. For that, 100-fold concentrated DMSO solutions were prepared by serial dilutions (1:3.4) of a 2 mM stock solution in a clear, 384-well microtiter plate (Greiner Bio-One, Frickenhausen, Germany). From there, 50 ni were transferred in a dark test plate (Greiner Bio-One, Frickenhausen, Germany). The assay was initiated by addition of 2 μl of a 2.5-fold concentrated MBP-MCL-1 solution (usually for a 1 nM end concentration in 5 μl reaction volume) in aqueous assay buffer [50 mM Tris/HCl pH 7, 100 mM sodium chloride (NaCl), 50 mM potassium fluoride (KF), 0.005% Tween-20, 2 mM DTT, 0.1% bovine gamma globulin (BGG)] to the compounds in the assay plate. This was followed by a 10-minute incubation step at 22° C. for pre-equilibration of the putative complex between MBP-MCL-1 and the compounds. After that.
The mixture was incubated in the dark for one hour at 22° C. and then overnight at 4° C. The formation of MCL-1/Noxa complexes was determined by measuring the resonance energy transfer of the anti-MBP- Eu-cryptate antibody to the streptavidin-XL665 present in the reaction. For that purpose, the fluorescence emission at 620 nm and 665 nm after excitation at 330-350 nm was measured in a TR-FRET measuring instrument, for instance a Rubystar or a Pherastar (both from BMG Lab Technologies, Offenburg, Germany) or a Viewlux (Perkin-Elmer). The ratio of the emission at 665 nm and at 622 nm was used as indicator of the amount of MCL-1/NOXA complexes present.
The resulting data (ratio) were normalized, taking 0% inhibition as the mean value of control measurements (usually 32 data points) where all reagents were included. In this case 50 nl DMSO were used instead of compounds. A 100% inhibition corresponded to the mean value of control measurements (usually 32 data points) where all reagents except MCL-1 were included. IC50 values were determined by regression analysis based on a 4 parameter equation (minimum, maximum, IC50, Hill; Y=Max+(Min−Max)/(1+(X/IC50)^Hill) using the Screener Software (Genedata).
In general terms: In TR-FRET formats the signal depends on donor and acceptor labels being close together.

A further assay deals with A2780. The experiment in a line: Anti-proliferative effect (CellTiter-Glo, 72 h), A2780. The class given is cell-based. Conditions: Homo sapiens, A2780, 72 h, A2780 cells, median, read-out: IC50 antiproliferation assay A2780 [M] (median). The procedure: (§6) Assessment of the Anti-Proliferative Effect of Compounds in Different Cell Lines
(§7) The impact of compounds on the proliferation of different cell lines was assessed using the CellTiter-Glo® Luminescent Cell Viability reagent from Promega (G7573). Of note, SUDHL10 and SUDHL5 (DLBCL), NCI-H929 (Multiple Myeloma), A2780 (ovarian carcinoma) as well as MV-4-11(AML) cells are sensitive to MCL-1 inhibition.
(§8) In parallel, cells were plated in a reference (day 0) plate for time zero determination.
(§9) Rim wells were excluded. The cells were incubated for 72 h hours in a humidified incubator at 37° C. The day 0 plate was measured by adding 30 μl/well of CTG solution (CellTiter-Glo® Luminescent Cell Viability reagent, Promega G7573) to time zero wells in the reference plate followed by a 10 minutes incubation and luminescence reading at 0.1 ms, using the PHERAstar FS microplate reader (BMG Labtech).
(§10) After 72 h incubation, the treated plates were measured in the same way as the day 0 plate mentioned above.

The test system of assay [4] is SUDHL5. Nature of the assay: Anti-proliferative effect (CellTiter-Glo, 72 h), SUDHL5. The class given is cell-based. Conditions: Homo sapiens, SU-DHL-5, 72 h, SUDHL5 cells, antiproliferation, median, read-out: Antiproli SUDHL5 [M] (median). The procedure: as §6, §7, §8, §9, §10
The subject of assay [5] is SUDHL10. The experiment in a line: Induction of caspase-3/7 activity (Caspase-Glo 3/7), SUDHL10. The class given is cell-based. The following applies: Homo sapiens, SU-DHL10, 3 h, caspase-3/7 induction, SUDHL10 cells, 3 h treatment; median. The procedure: as §1, §2, §3, §4, §5
Where [6] appears, read: read-out: Cytotox SUDHL5 [M] (median), SUDHL5 cells, cytotoxicity induction, CellTiter-Glo, 5 h incubation, median.
Where [7] appears, read: read-out: Cytotox SUDHL10 [M] (median), SUDHL10 cells, cytotoxicity induction, CellTiter-Glo, 5 h incubation, median.
Setting [8] is: read-out: Cytotox SUDHL5 [M] (median), SUDHL5 cells, cytotoxicity induction, CellTiter-Glo, 5 h, median.
The mark [9] stands for this setting: read-out: Cytotox SUDHL10 [M] (median), SUDHL10 cells, cytotoxicity induction, CellTiter-Glo, 5 h, median.

Where a name gives a salt, the structure may show the parent alone. Read-outs that look alike come from different tables or passages of the source.

Sequence of MCL-1 (Q07820 whole entry): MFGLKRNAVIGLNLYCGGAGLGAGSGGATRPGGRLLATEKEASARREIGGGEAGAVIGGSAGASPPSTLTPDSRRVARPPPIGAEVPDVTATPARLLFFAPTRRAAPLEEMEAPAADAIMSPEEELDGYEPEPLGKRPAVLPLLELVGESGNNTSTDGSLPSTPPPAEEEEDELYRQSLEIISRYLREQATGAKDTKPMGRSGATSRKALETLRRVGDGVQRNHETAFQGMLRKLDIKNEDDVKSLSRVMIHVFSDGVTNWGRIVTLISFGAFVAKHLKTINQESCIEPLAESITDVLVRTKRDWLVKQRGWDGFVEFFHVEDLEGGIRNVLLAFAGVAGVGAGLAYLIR

For orientation: EC50 means the concentration needed to bring the measured effect to its halfway point. `Cc1nn(CC(F)(F)F)c2c1-c1cccc3c(CCCOc4cccc5ccccc45)c(C(=O)O)n(c13)CCCCOC2` (racemic) [Example 109, (rac)-3-methyl-7-[3-(naphthalen-1-yloxy)propyl]-1-(2,2,2-trifluoroethyl)-1,10,11,12,13,15-hexahydropyrazolo[4′,3′:9,10][1,6]oxazacycloundecino[8,7,6-hi]indole-8-carboxylic acid]: the IC50 in the assay on SUDHL5 [1] (setting [6]) is greater than 3.3e-05 M; in the assay with SUDHL10 [3] (setting [7]), greater than 3.3e-05 M; against MCL-1, 0.0111 µM; with A2780, 1.9e-05 M; in the assay on SUDHL5 [4] (72 h incubation) it was 1.56e-05 M. Further, the 50% effective concentration (EC50) with SUDHL5 [2] and in the assay on SUDHL10 [5] was greater than 33 µM in each case.

For the compound `Cn1nc(CCN2CCOCC2)c2c1COCCCCn1c(C(=O)O)c(CCCOc3cccc4ccccc34)c3cccc-2c31` (racemic) [Example 150, (rac)-1-methyl-3-[2-(morpholin-4-yl)ethyl]-7-[3-(naphthalen-1-yloxy)propyl]-1,10,11,12,13,15-hexahydropyrazolo[4′,3′:9,10][1,6]oxazacycloundecino[8,7,6-hi]indole-8-carboxylic Acid], the IC50 in the assay with SUDHL5 [1] (setting [6]) is 2.69e-05 M; with SUDHL10 [3] (setting [7]) it was greater than 3.3e-05 M; at MCL-1, 0.00761 µM; in the assay with A2780, greater than 3.3e-05 M; with SUDHL5 [4] (72 h incubation) it was 2.11e-05 M. Besides, the EC50 in the assay on SUDHL5 [2] is greater than 33 µM; with SUDHL10 [5], 28 µM.

On to `COCc1nn(C)c2c1-c1cccc3c(CCCOc4cccc5ccccc45)c(C(=O)O)n(c13)CCCCCOC2` (racemic) [Example 177, (rac)-3-(methoxymethyl)-1-methyl-7-[3-(naphthalen-1-yloxy)propyl]-1,11,12,13,14,16-hexahydro-10H-pyrazolo[3′,4′:3,4][1,7]oxazacyclododecino[5,6,7-hi]indole-8-carboxylic Acid], for which the IC50 in the assay on SUDHL5 [1] (setting [6]) is 2.14e-05 M; with SUDHL10 [3] (setting [7]), greater than 3.3e-05 M; on MCL-1, 0.0107 µM; with A2780 it was greater than 3.3e-05 M; in the assay on SUDHL5 [4] (72 h incubation), greater than 3.3e-05 M. Further, the concentration for a half-maximal effect (EC50) is 23.3 µM in the assay with SUDHL5 [2] and greater than 33 µM in the assay on SUDHL10 [5].

In the case of `Cn1nc(C(F)(F)F)c2c1COCCCCn1c(C(=O)O)c(CCCOc3cccc4ccccc34)c3cccc-2c31` (racemic) [Example 216, (rac)-1-methyl-7-[3-(naphthalen-1-yloxy)propyl]-3-(trifluoromethyl)-1,10,11,12,13,15-hexahydropyrazolo[4′,3′:9,10][1,6]oxazacycloundecino[8,7,6-hi]indole-8-carboxylic Acid], the IC50 in the assay on SUDHL5 [1] (setting [6]) was determined as 1.04e-05 M; in the assay with SUDHL10 [3] (setting [7]), 3.11e-05 M; against MCL-1, 0.0058 µM; in the assay on A2780, 2.02e-05 M; in the assay with SUDHL5 [4] (72 h incubation), 1.27e-05 M. The EC50 in the assay with SUDHL5 [2] amounted to 10 µM; in the assay on SUDHL10 [5], 28.7 µM.

`Cc1c2c(nn1CCN(C)C)COCCCCn1c(C(=O)O)c(CCCOc3cccc4ccccc34)c3cccc-2c31` (racemic) [Example 243, (rac)-2-[2-(dimethylamino)ethyl]-3-methy-7-[3-(naphthalen-1-yloxy)propyl]-2,10,11,12,13,15-hexahydropyrazolo[4′,3′:9,10][1,6]oxazacycloundecino[8,7,6-hi]indole-8-carboxylic Acid Trifluoroacetic Acid Salt]: the IC50 came to 6.44e-06 M in the assay with SUDHL5 [1] (setting [6]); 1.46e-05 M in the assay with SUDHL10 [3] (setting [7]); 0.00778 µM against MCL-1; 1.43e-05 M in the assay on A2780; 1.11e-05 M with SUDHL5 [4] (72 h incubation). The half-maximal effective concentration (EC50) in the assay on SUDHL5 [2] was found to be 7.09 µM; with SUDHL10 [5] it was 16.5 µM.

Consider `CCc1nn(C)c2c1-c1c(C)ccc3c(C(C)CCOc4cccc5ccccc45)c(C(=O)O)n(c13)CCCCOC2` (racemic) [Example 271, 3-ethyl-1,4-dimethyl-7-[4-(naphthalen-1-yloxy)butan-2-yl]-1,10,11,12,13,15-hexahydropyrazolo[4′,3′:9,10][1,6]oxazacycloundecino[8,7,6-hi]indole-8-carboxylic Acid], for which the IC50 is 3.28e-05 M in the assay on SUDHL5 [1] (setting [6]); greater than 3.3e-05 M in the assay on SUDHL10 [3] (setting [7]); 0.0306 µM on MCL-1; 1.83e-05 M in the assay with A2780; 1.27e-05 M in the assay on SUDHL5 [4] (72 h incubation). Moreover, the EC50 in the assay with SUDHL5 [2] and in the assay with SUDHL10 [5] was greater than 33 µM each time.

Turning to `CN1CCN(Cc2c3c(nn2C)COC/C=C\Cn2c(C(=O)O)c(CCCOc4cccc5ccccc45)c4cccc-3c42)CC1` (racemic) [Example 358, (rac)-(11 Z)-2-methyl-3-[(4-methylpiperazin-1-yl)methyl]-7-[3-(naphthalen-1-yloxy)propyl]-2,10,13,15-tetrahydropyrazolo[4′,3′:9,10][1,6]oxazacycloundecino[8,7,6-hi]indole-8-carboxylic Acid], the IC50 is greater than 3.3e-05 M in the assay with SUDHL5 [1] (setting [8]); greater than 3.3e-05 M in the assay with SUDHL10 [3] (setting [9]); 0.0173 µM against MCL-1; 1.2e-05 M with A2780; 2.06e-05 M with SUDHL5 [4] (72 h). For the same compound, the EC50 in the assay with SUDHL5 [2] and with SUDHL10 [5] was greater than 33 µM in each case.

With `Cc1ccc2c(C(C)CCOc3cccc4ccccc34)c(C(=O)O)n3c2c1-c1c(nn(C)c1C)COCCCC3` (racemic) [Example 362, 11,12,13-trimethyl-1-(4-(naphthalen-1-yloxy)butan-2-yl)-4,5,6,7,9,11-hexahydropyrazolo[4′,3′:9,10][1,6]oxaazacycloundecino[8,7,6-hi]indole-2-carboxylic Acid (Mixture of Stereoisomers)], the IC50 was 2.72e-05 M in the assay on SUDHL5 [1] (setting [8]); greater than 3.3e-05 M in the assay with SUDHL10 [3] (setting [9]); 0.0187 µM against MCL-1; 1.41e-05 M in the assay on A2780; 1.27e-05 M in the assay on SUDHL5 [4] (72 h). Moreover, the figures for the half-maximal effective concentration (EC50) in the assay on SUDHL5 [2] and in the assay on SUDHL10 [5] were 26.2 µM and greater than 33 µM, respectively.

The values are drawn from patent US10981932B2, “Macrocyclic indole derivatives” (Bayer Aktiengesellschaft, priority 2016, dated 2021).
